The assay deals with P388 leukemia. In words: NCI tumour cell line growth inhibition, 48 h.

Molecules are shown by their SMILES.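 Dose response: 5 concentrations. Exposure: 48 h. Format: 96-well plates. Endpoint: linear interpolation; highest concentration if not reached. TGI: total growth inhibition.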

With `CC[C@@]1(O)C(=O)OCc2c1cc1n(c2=O)Cc2cc3cc(O)ccc3nc2-1`, the TGI was determined as 1430 nM.

(Values after PubChem BioAssay (NCI).)
